Test results from patent US5157021A, “Insulin derivatives and pharmaceutical preparations containing these derivatives” (Novo Nordisk A/S, priority 1985, dated 1992).

System: guinea pigs
Test: Hypoglycemia (blood glucose) in guinea pigs after subcutaneous injection of the insulin preparation
Type: in vivo, guinea pig
Experimental: 25 ml of a medium containing 1.6% (w/v) of glycerol. 0.33% (w/v) of m-cresol, 1/75M of sodium phosphate, pH value 7.3, were prepared. The solution was sterilized by filtration. 1.5 mg of human insulin-B21-methyl ester, prepared as described in Example 1, were suspended in 1.0 ml of medium.
4.5 mg of human insulin-A17-methyl ester were dissolved in 2.7 ml of 0.015M phosphoric acid. 21 mg of sodium chloride and 4.1 μlitres of an aqueous solution of 152 mM zinc chloride were added. The solution was sterilized by filtration. The pH value of the solution was adjusted to 8.0 under aseptic conditions with a sterile aqueous solution of sodium hydroxide. The pH value of the solution was then readjusted to 7.3 with sterile hydrochloric acid, and rhombohedral crystals with a mean size of 10 um were formed with gentle stirring at 21° C. The volume was adjusted to 3 ml with sterile water.
Moreover, a sterile solution of 3 ml of 13.5 mM phosphoric acid in admixture with 21 mg of sodium chloride and 9 μlitres of m-cresol was prepared, and the pH value was adjusted to 7.3 with a sterile aqueous solution of sodium hydroxide. The two solutions were combined.
15 mg of human insulin-A4-gln, obtained as described in Example 5, was dissolved in 10 ml of a solution containing 13.5 mM phosphoric acid, 0.3% m-cresol and 1.6% glycerol. The solution was sterilized by filtration, and the pH value was adjusted to 9,0 with a sterile aqueous solution of sodium hydroxide. The pH value was readjusted to 8.2 with a sterile solution of hydrochloric acid, and human insulin-A4-gln crystallized as rhombohedral crystals with gentle stirring.

[1] = dosage 18 μg/kg, crystalline zinc preparation pH 7.3

Human insulin-B21-methyl ester
protracted insulin action compared with "Insulatard" (subcutaneous, zinc-free suspension 1.5 mg in 1.0 ml medium, pH 7.3): comparable to the hypoglycemia observed after injection of a standard protamin insulin preparation

Human insulin-A4-gln
protracted hypoglycemic effect compared with "Insulatard" at 0.5 IU/kg (subcutaneous injection of crystalline suspension at 0.5 IU/kg): nearly identical both in timing and amplitude

Human insulin-A17-methyl ester
biological activity indicated by area below the blood glucose curve, relative to human insulin [1]: nearly the same biological activity as human insulin | hypoglycemia [1]: strongly protracted hypoglycemia | protracted insulin action compared with "Insulatard" [1]: longer than the protracted action of the known injection preparation
